The text below walks through data of PubChem BioAssay AID328 (DTP/NCI, 2004).

The experiment concerns BDF1 mice, P388 leukemia ip, median survival T/C. Description: NCI In Vivo Anticancer Drug Screen. Data for tumor model P388 Leukemia (intraperitoneal) in B6D2F1 (BDF1) mice. Conditions: endpoint: median survival time, higher = longer survival. On the procedure:
The antitumor activity of compounds was measured in mice bearing transplantable tumors. Survival or tumor size were measured and the results are expressed as the measurement made in the treated group (T) divided by the measurement made in the vehicle treated control group (C). The tumor model used in this assay is P388 Leukemia (intraperitoneal) in B6D2F1 (BDF1) mice

Setting [1] is: dose: 25.0 mg/kg/injection, schedule: Q01DX009 (ip), vehicle: saline with Tween-80.
Where [2] appears, read: dose: 50.0 mg/kg/injection, schedule: Q01DX009 (ip), vehicle: saline with Tween-80.
Where [3] appears, read: dose: 50.0 mg/kg/injection, schedule: Q04DX003 (ip), vehicle: saline with Tween-80.
The mark [4] stands for this setting: dose: 100.0 mg/kg/injection, schedule: Q01DX009 (ip), vehicle: saline with Tween-80.
Where [5] appears, read: dose: 200.0 mg/kg/injection, schedule: Q01DX009 (ip), vehicle: saline with Tween-80.
[6] abbreviates: dose: 100.0 mg/kg/injection, schedule: Q04DX003 (ip), vehicle: saline with Tween-80.
Where [7] appears, read: dose: 18.75 mg/kg/injection, schedule: Q01DX009 (ip), vehicle: Klucel (hydroxypropylcellulose) (HPC).

Several values for one entry are separate records, joined by “and”; a condition that tells them apart may be missing. Equal values may be shown once. Inconclusive results and toxic doses are left out.

Regarding `C[NH-].C[NH-].[Br][Pt+2][Br]`, the T/C reads like this: (dose: 6.0 mg/kg/injection, schedule: Q04DX003 (ip), vehicle: other) 170 % of control; (dose: 12.0 mg/kg/injection, schedule: Q04DX003 (ip), vehicle: other) 208 % of control; (dose: 12.5 mg/kg/injection, schedule: Q04DX003 (ip), vehicle: other) 212 % of control.
As to `c1cc2ccsc2cn1`, the T/C is, setting by setting: (dose: 12.5 mg/kg/injection, schedule: Q01DX009 (ip), vehicle: saline with Tween-80) 103 % of control; under setting [1], 92 % of control; (dose: 25.0 mg/kg/injection, schedule: Q04DX003 (ip), vehicle: saline with Tween-80) 95 % of control; under setting [2], 92 % of control; under setting [3], 91 % of control.
As to `COc1ccc2[nH]ccc(=O)c2c1`, the T/C under setting [2] was 102 % of control, the T/C under setting [4] is 96 % of control and the T/C under setting [5] was 105 % of control.
Consider `CCCCCCCC(O)CCCC` (stereo not drawn), for which the T/C is, setting by setting: (dose: 100.0 mg/kg/injection, schedule: Q04DX003 (ip), vehicle: Klucel (hydroxypropylcellulose) (HPC)) 87 % of control; (dose: 200.0 mg/kg/injection, schedule: Q04DX003 (ip), vehicle: Klucel (hydroxypropylcellulose) (HPC)) 91 % of control; (dose: 400.0 mg/kg/injection, schedule: Q04DX003 (ip), vehicle: Klucel (hydroxypropylcellulose) (HPC)) 91 % of control.
In the case of `CCOC(=O)c1ccc(C=O)[nH]1`, the T/C reads like this: under setting [2], 101 % of control; under setting [4], 99 % of control; under setting [5], 99 % of control.
Regarding `c1ccc(C2OC3(CCCCC3)C[N+]23CCCC3)cc1` (stereo not drawn), the T/C reads like this: under setting [1], 95 % of control; under setting [2], 113 % of control; under setting [3], 100 % of control; under setting [6], 87 % of control.
On to `Nc1ccn(CC(=O)N2CCOCC2)c(=O)n1`, for which the T/C by setting is: (dose: 25.0 mg/kg/injection, schedule: Q04DX003 (ip), vehicle: water) 106 % of control; (dose: 50.0 mg/kg/injection, schedule: Q04DX003 (ip), vehicle: water) 103 % of control; (dose: 100.0 mg/kg/injection, schedule: Q04DX003 (ip), vehicle: water) 89 % of control; (dose: 200.0 mg/kg/injection, schedule: Q04DX003 (ip), vehicle: water) 103 % of control; (dose: 400.0 mg/kg/injection, schedule: Q04DX003 (ip), vehicle: water) 94 % of control.
`CC1=NNC(=O)C1`: the T/C runs as follows: (dose: 100.0 mg/kg/injection, schedule: Q01DX001 (ip), vehicle: saline sonified) 100 % of control; (dose: 200.0 mg/kg/injection, schedule: Q01DX001 (ip), vehicle: saline sonified) 100 % of control; (dose: 400.0 mg/kg/injection, schedule: Q01DX001 (ip), vehicle: saline sonified) 105 % of control.
Consider `CCS(=O)(=O)OC1CCCCCCC1NC(=O)c1ccccc1` (stereo not drawn), for which the T/C is, setting by setting: under setting [1], 95 % of control; under setting [2], 109 % of control; under setting [4], 104 % of control.
For `CC1CCC(NC(=O)N(CCCl)N=O)CC1` (stereo not drawn), the T/C by setting is: (dose: 0.66 mg/kg/injection, schedule: Q01DX009 (ip), vehicle: Klucel (hydroxypropylcellulose) (HPC)) 97 % of control; (dose: 0.99 mg/kg/injection, schedule: Q01DX009 (ip), vehicle: Klucel (hydroxypropylcellulose) (HPC)) 107 % of control; (dose: 1.5 mg/kg/injection, schedule: Q01DX009 (ip), vehicle: Klucel (hydroxypropylcellulose) (HPC)) 177 % of control; (dose: 3.1 mg/kg/injection, schedule: Q04DX003 (ip), vehicle: Klucel (hydroxypropylcellulose) (HPC)) 154 % of control; (dose: 3.6 mg/kg/injection, schedule: Q01DX009 (ip), vehicle: Klucel (hydroxypropylcellulose) (HPC)) 180 % of control; (dose: 4.7 mg/kg/injection, schedule: Q04DX003 (ip), vehicle: Klucel (hydroxypropylcellulose) (HPC)) 172 % of control. The T/C (dose: 5.0 mg/kg/injection, schedule: Q04DX002 (ip), vehicle: other) is 168 % of control; the T/C (dose: 7.2 mg/kg/injection, schedule: Q04DX003 (ip), vehicle: saline) is 190 % of control; the T/C (dose: 8.3 mg/kg/injection, schedule: Q01DX009 (ip), vehicle: Klucel (hydroxypropylcellulose) (HPC)) is 250 % of control; the T/C (dose: 9.4 mg/kg/injection, schedule: Q04DX003 (ip), vehicle: saline with Tween-80) was 113 % of control; the T/C (dose: 10.0 mg/kg/injection, schedule: Q01DX001 (ip), vehicle: alcohol) is 119 % of control; the T/C (dose: 10.0 mg/kg/injection, schedule: Q04DX002 (ip), vehicle: other) is 194 % of control. Further, the T/C is, setting by setting: (dose: 10.0 mg/kg/injection, schedule: Q04DX003 (ip), vehicle: saline with Tween-80) 209 % of control; (dose: 10.0 mg/kg/injection, schedule: Q04DX003 (ip), vehicle: saline) 225 % of control; (dose: 11.0 mg/kg/injection, schedule: Q04DX003 (ip), vehicle: saline with Tween-80) 272 % of control; (dose: 12.5 mg/kg/injection, schedule: Q01DX009 (ip), vehicle: Klucel (hydroxypropylcellulose) (HPC)) 300 % of control and 120 % of control; (dose: 15.0 mg/kg/injection, schedule: Q04DX003 (ip), vehicle: saline with Tween-80) 241 % of control and 322 % of control and 212 % of control; (dose: 16.0 mg/kg/injection, schedule: Q01DX001 (ip), vehicle: saline with Tween-80) 322 % of control. Moreover, the T/C reads like this: (dose: 16.0 mg/kg/injection, schedule: Q04DX003 (ip), vehicle: saline with Tween-80) 545 % of control; (dose: 16.5 mg/kg/injection, schedule: Q04DX003 (ip), vehicle: saline) 272 % of control; (dose: 18.0 mg/kg/injection, schedule: Q01DX009 (ip), vehicle: Klucel (hydroxypropylcellulose) (HPC)) 110 % of control; under setting [7], 100 % of control; (dose: 20.0 mg/kg/injection, schedule: Q04DX002 (ip), vehicle: other) 247 % of control; (dose: 20.0 mg/kg/injection, schedule: Q04DX003 (ip), vehicle: saline with Tween-80) 258 % of control and 294 % of control and 482 % of control. The T/C by setting is: (dose: 24.0 mg/kg/injection, schedule: Q04DX003 (ip), vehicle: saline with Tween-80) 545 % of control; (dose: 25.0 mg/kg/injection, schedule: Q01DX009 (ip), vehicle: Klucel (hydroxypropylcellulose) (HPC)) 115 % of control; (dose: 25.0 mg/kg/injection, schedule: Q04DX003 (ip), vehicle: alcohol) 300 % of control; (dose: 25.0 mg/kg/injection, schedule: Q04DX003 (ip), vehicle: saline) 240 % of control and 272 % of control; (dose: 30.0 mg/kg/injection, schedule: Q04DX003 (ip), vehicle: saline with Tween-80) 446 % of control; (dose: 37.5 mg/kg/injection, schedule: Q04DX003 (ip), vehicle: saline) 90 % of control and 218 % of control. Also, the T/C (dose: 40.0 mg/kg/injection, schedule: Q04DX002 (ip), vehicle: other) is 117 % of control; the T/C (dose: 50.0 mg/kg/injection, schedule: Q04DX003 (ip), vehicle: alcohol) is 115 % of control; the T/C (dose: 54.0 mg/kg/injection, schedule: Q01DX001 (ip), vehicle: saline with Tween-80) is 499 % of control.
`C[As](C)Sc1ccnc(S[As](C)C)n1`: the T/C is 100 % of control under setting [3]; 100 % of control under setting [6]; 104 % of control (dose: 200.0 mg/kg/injection, schedule: Q04DX003 (ip), vehicle: saline with Tween-80).
Consider `C=C(C)C1CCC2(C=O)CCC3(C)C(CCC4C5(C)CCC(O)C(C)(C)C5CCC43C)C12` (stereo not drawn), for which the T/C under setting [7] is 91 % of control; the T/C (dose: 37.5 mg/kg/injection, schedule: Q01DX009 (ip), vehicle: Klucel (hydroxypropylcellulose) (HPC)) was 88 % of control; the T/C (dose: 75.0 mg/kg/injection, schedule: Q01DX009 (ip), vehicle: Klucel (hydroxypropylcellulose) (HPC)) was 95 % of control.
Take `C=C1C(=O)CCC1C(=O)O` (stereo not drawn): the T/C by setting is: (dose: 100.0 mg/kg/injection, schedule: Q01DX009 (ip), vehicle: saline) 100 % of control and 109 % of control; (dose: 178.0 mg/kg/injection, schedule: Q04DX003 (ip), vehicle: saline) 106 % of control; (dose: 266.0 mg/kg/injection, schedule: Q04DX003 (ip), vehicle: saline) 108 % of control; (dose: 400.0 mg/kg/injection, schedule: Q01DX009 (ip), vehicle: saline) 150 % of control and 154 % of control and 162 % of control; (dose: 400.0 mg/kg/injection, schedule: Q04DX003 (ip), vehicle: saline) 123 % of control; (dose: 600.0 mg/kg/injection, schedule: Q01DX009 (ip), vehicle: saline) 170 % of control and 182 % of control. Besides, where the note is “dose: 900.0 mg/kg/injection, schedule: Q01DX009 (ip), vehicle: saline”, the T/C is 175 % of control.
